The experiment deals with MV-4-11 cells. Briefly: Gene expression microarray analysis (Affymetrix PrimeView) and GSEA. Set-up: RFU PODN (11730768_x_at) / Fold change /veh PODN (11730768_x_at) / RFU LINC00158 (11744669_a_at) / Fold change /veh LINC00158 (11744669_a_at) / RFU DUSP10 (11751237_a_at) / Fold change /veh DUSP10 (11751237_a_at) / RFU ID3 (11757404_x_at) / Fold change /veh ID3 (11757404_x_at) / RFU PLEKHG5 (11737974_s_at) / Fold change /veh PLEKHG5 (11737974_s_at) / RFU LRRC4B (11730491_at) / Fold change /veh LRRC4B (11730491_at) / RFU GIMAP4 (11747438_a_at) / Fold change /veh GIMAP4 (11747438_a_at) / RFU KRT8 (11758183_x_at) / Fold change /veh KRT8 (11758183_x_at) / RFU CNN1 (11734310_a_at) / Fold change /veh CNN1 (11734310_a_at) / RFU VPS37D (11726825_at) / Fold change /veh VPS37D (11726825_at) / RFU C10orf10 (11716522_x_at) / Fold change /veh C10orf10 (11716522_x_at) / RFU KIR2DL2 /// KIR2DL4 /// KIR2DL5A /// KIR2DL5B /// KIR2DS1 /// KIR2DS2 /// KIR2DS3 /// KIR2DS4 /// KIR3DL3 /// KIR3DL3 /// KIR3DS1 (11738374_at) / Fold change /veh KIR2DL2 /// KIR2DL4 /// KIR2DL5A /// KIR2DL5B /// KIR2DS1 /// KIR2DS2 /// KIR2DS3 /// KIR2DS4 /// KIR3DL3 /// KIR3DL3 /// KIR3DS1 (11738374_at) / RFU C1QL1 (11718748_at) / Fold change /veh C1QL1 (11718748_at) / RFU TMPRSS4 (11747572_a_at) / Fold change /veh TMPRSS4 (11747572_a_at) / RFU HAMP (11756126_x_at) / Fold change /veh HAMP (11756126_x_at) / RFU RNFT2 (11725882_a_at) / Fold change /veh RNFT2 (11725882_a_at) / RFU NR4A2 (11747474_a_at) / Fold change /veh NR4A2 (11747474_a_at) / RFU ABCC12 (11746883_a_at) / Fold change /veh ABCC12 (11746883_a_at) / RFU TMEM136 (11760407_x_at) / Fold change /veh TMEM136 (11760407_x_at) / RFU CLDN22 /// WWC2 (11732394_at) / Fold change /veh CLDN22 /// WWC2 (11732394_at) / RFU HLA-DPB1 (11760878_x_at) / Fold change /veh HLA-DPB1 (11760878_x_at) / RFU SPINT1 (11716480_a_at) / Fold change /veh SPINT1 (11716480_a_at) / RFU GAP43 (11754022_s_at) / Fold change /veh GAP43 (11754022_s_at) / RFU A4GNT (11735810_at) / Fold change /veh A4GNT (11735810_at) / RFU PRB3 (11715151_x_at) / Fold change /veh PRB3 (11715151_x_at) / RFU TUBB4B (11761932_at) / Fold change /veh TUBB4B (11761932_at) / RFU CAPN14 (11732068_a_at) / Fold change /veh CAPN14 (11732068_a_at) / RFU TMCC2 (11721928_a_at) / Fold change /veh TMCC2 (11721928_a_at) / RFU IRGQ (11745062_a_at) / Fold change /veh IRGQ (11745062_a_at) / RFU FAM174B (11720279_a_at) / Fold change /veh FAM174B (11720279_a_at) / RFU TMPRSS4 (11748680_a_at) / Fold change /veh TMPRSS4 (11748680_a_at) / RFU FAM212B (11763350_a_at) / Fold change /veh FAM212B (11763350_a_at) / RFU PLEKHG5 (11743358_a_at) / Fold change /veh PLEKHG5 (11743358_a_at) / RFU ZSCAN30 (11745921_a_at) / Fold change /veh ZSCAN30 (11745921_a_at) / RFU CMKLR1 (11741424_a_at) / Fold change /veh CMKLR1 (11741424_a_at) / RFU LOC101060620 /// MAPK8IP1 (11723275_at) / Fold change /veh LOC101060620 /// MAPK8IP1 (11723275_at) / RFU SPTSSB (11747773_x_at) / Fold change /veh SPTSSB (11747773_x_at) / RFU PRSS12 (11739890_at) / Fold change /veh PRSS12 (11739890_at) / RFU BIN1 (11741810_x_at) / Fold change /veh BIN1 (11741810_x_at) / RFU WNT11 (11732464_a_at) / Fold change /veh WNT11 (11732464_a_at) / RFU C10orf10 (11716521_a_at) / Fold change /veh C10orf10 (11716521_a_at) / RFU C5orf56 (11738089_at) / Fold change /veh C5orf56 (11738089_at) / RFU CYB561 (11721691_x_at) / Fold change /veh CYB561 (11721691_x_at) / RFU ANKRD19P (11752326_a_at) / Fold change /veh ANKRD19P (11752326_a_at) / RFU OR2T12 /// OR2T33 /// OR2T8 (11738714_s_at) / Fold change /veh OR2T12 /// OR2T33 /// OR2T8 (11738714_s_at) / RFU VCAN (11748164_a_at) / Fold change /veh VCAN (11748164_a_at) / RFU JSRP1 (11732532_at) / Fold change /veh JSRP1 (11732532_at) / RFU KRTAP10-11 (11738290_x_at) / Fold change /veh KRTAP10-11 (11738290_x_at) / RFU MYO3A (11730013_a_at) / Fold change /veh MYO3A (11730013_a_at) / RFU EBF3 (11725865_a_at) / Fold change /veh EBF3 (11725865_a_at) / RFU CAMK2N1 (11719241_x_at) / Fold change /veh CAMK2N1 (11719241_x_at) / RFU C5orf56 (11738088_a_at) / Fold change /veh C5orf56 (11738088_a_at) / RFU OLFML3 (11715873_a_at) / Fold change /veh OLFML3 (11715873_a_at) / RFU LOC100653217 /// NTM (11731650_a_at) / Fold change /veh LOC100653217 /// NTM (11731650_a_at) / RFU MAPK11 (11762145_a_at) / Fold change /veh MAPK11 (11762145_a_at) / RFU FIZ1 (11724087_x_at) / Fold change /veh FIZ1 (11724087_x_at) / RFU OASL (11726364_x_at) / Fold change /veh OASL (11726364_x_at) / RFU SOX15 (11748057_x_at) / Fold change /veh SOX15 (11748057_x_at) / RFU CD79A (11719716_a_at) / Fold change /veh CD79A (11719716_a_at) / RFU HIST1H1D (11736915_at) / Fold change /veh HIST1H1D (11736915_at) / RFU CASKIN2 (11723855_a_at) / Fold change /veh CASKIN2 (11723855_a_at) / RFU LOC730098 (11760151_x_at) / Fold change /veh LOC730098 (11760151_x_at) / RFU OR4N2 (11742367_at) / Fold change /veh OR4N2 (11742367_at) / RFU PRRT2 (11749266_a_at) / Fold change /veh PRRT2 (11749266_a_at) / RFU SNX32 (11753110_a_at) / Fold change /veh SNX32 (11753110_a_at) / RFU CDHR5 (11726645_a_at) / Fold change /veh CDHR5 (11726645_a_at) / RFU RCAN1 (11760418_a_at) / Fold change /veh RCAN1 (11760418_a_at) / RFU FAM167A (11723789_a_at) / Fold change /veh FAM167A (11723789_a_at) / RFU FAM26E (11764081_at) / Fold change /veh FAM26E (11764081_at) / RFU ISYNA1 (11749810_s_at) / Fold change /veh ISYNA1 (11749810_s_at) / RFU ACY1 (11761880_at) / Fold change /veh ACY1 (11761880_at) / RFU 11764098_at / Fold change /veh 11764098_at / RFU SAMD14 (11745864_x_at) / Fold change /veh SAMD14 (11745864_x_at) / RFU NPB (11741838_a_at) / Fold change /veh NPB (11741838_a_at) / RFU TMPRSS6 (11731388_a_at) / Fold change /veh TMPRSS6 (11731388_a_at) / RFU KRTAP10-2 (11738614_at) / Fold change /veh KRTAP10-2 (11738614_at) / RFU ARHGAP8 /// PRR5-ARHGAP8 (11727945_x_at) / Fold change /veh ARHGAP8 /// PRR5-ARHGAP8 (11727945_x_at) / RFU KRTAP5-7 /// NADSYN1 (11734609_at) / Fold change /veh KRTAP5-7 /// NADSYN1 (11734609_at) / RFU RASL12 (11751679_a_at) / Fold change /veh RASL12 (11751679_a_at) / RFU CDKN2B (11736163_a_at) / Fold change /veh CDKN2B (11736163_a_at) / RFU PRF1 (11729649_at) / Fold change /veh PRF1 (11729649_at) / RFU, ZNF638 /// ZNF638-IT1 / Fold change vs veh, ZNF638 /// ZNF638-IT1 / RFU, PANK3 / Fold change vs veh, PANK3 / RFU, SH3YL1 / Fold change vs veh, SH3YL1 / RFU, ZEB2 / Fold change vs veh, ZEB2 / RFU, NRIP1 / Fold change vs veh, NRIP1 / RFU, PTTG1IP / Fold change vs veh, PTTG1IP / RFU, CAPN2 / Fold change vs veh, CAPN2 / RFU, MED14 / Fold change vs veh, MED14 / RFU, SNORA58 / Fold change vs veh, SNORA58 / RFU, C1orf63 / Fold change vs veh, C1orf63 / RFU, LRRFIP1 / Fold change vs veh, LRRFIP1 / RFU, NDUFAF7 / Fold change vs veh, NDUFAF7 / RFU, SLC12A2 / Fold change vs veh, SLC12A2 / RFU, IBTK / Fold change vs veh, IBTK / RFU, ESF1 / Fold change vs veh, ESF1 / Fold change vs veh, TMEM50B / RFU, TAOK1 / Fold change vs veh, TAOK1 / RFU, ACBD3 / Fold change vs veh, ACBD3 / RFU, TMA16 / Fold change vs veh, TMA16 / RFU, RWDD3 / Fold change vs veh, RWDD3 / RFU, BCAT1 / Fold change vs veh, BCAT1 / RFU, EDEM3 / Fold change vs veh, EDEM3 / RFU, TMEM33 / Fold change vs veh, TMEM33 / RFU, WDR75 / Fold change vs veh, WDR75 / RFU, AHCTF1 / Fold change vs veh, AHCTF1 / RFU, TFRC / Fold change vs veh, TFRC / RFU, ZDHHC17 / Fold change vs veh, ZDHHC17 / RFU, NOM1 / Fold change vs veh, NOM1 / RFU, ARL8B / Fold change vs veh, ARL8B / RFU, ZBTB11 / Fold change vs veh, ZBTB11 / RFU, TAMM41 / Fold change vs veh, TAMM41 / RFU, KIAA1704 /// LOC100996395 / Fold change vs veh, KIAA1704 /// LOC100996395 / RFU, ING1 / Fold change vs veh, ING1 / RFU, TRMT61B / Fold change vs veh, TRMT61B / RFU, FUBP3 / Fold change vs veh, FUBP3 / RFU, TP53 / Fold change vs veh, TP53 / RFU, TNKS2 / Fold change vs veh, TNKS2 / RFU, ZFP14 / Fold change vs veh, ZFP14 / RFU, ACTR2 / Fold change vs veh, ACTR2 / RFU, PPP3R1 / Fold change vs veh, PPP3R1 / RFU, PIK3R1 / Fold change vs veh, PIK3R1 / RFU, HNRNPA1 / Fold change vs veh, HNRNPA1 / RFU, RNF170 / Fold change vs veh, RNF170 / RFU, ZNF28 / Fold change vs veh, ZNF28 / RFU, RNGTT / Fold change vs veh, RNGTT / RFU, OGT / Fold change vs veh, OGT / RFU, BRD1 / Fold change vs veh, BRD1 / RFU, MARS / Fold change vs veh, MARS / RFU, ZNF655 / Fold change vs veh, ZNF655 / RFU, FAHD1 / Fold change vs veh, FAHD1 / RFU, BDP1 / Fold change vs veh, BDP1 / RFU, LRRCC1 / Fold change vs veh, LRRCC1 / RFU, ARID1A / Fold change vs veh, ARID1A / RFU, ZNF146 / Fold change vs veh, ZNF146 / RFU, ZNF330 / Fold change vs veh, ZNF330 / RFU, GPN3 / Fold change vs veh, GPN3 / RFU, C9orf123 / Fold change vs veh, C9orf123 / RFU, N4BP2L2 / Fold change vs veh, N4BP2L2 / RFU, ARFIP1 / Fold change vs veh, ARFIP1 / RFU, FAM179B / Fold change vs veh, FAM179B / RFU, BCL10 / Fold change vs veh, BCL10 / RFU, UHRF1BP1L / Fold change vs veh, UHRF1BP1L / RFU, BET1 / Fold change vs veh, BET1 / RFU, CNOT2 / Fold change vs veh, CNOT2 / RFU, ZNF268 / Fold change vs veh, ZNF268 / Fold change vs veh, ZNF507 / RFU, DGCR2 / Fold change vs veh, DGCR2 / RFU, WDSUB1 / Fold change vs veh, WDSUB1 / Fold change vs veh, HSP90B1 /// MIR3652 / RFU, ADSS / Fold change vs veh, ADSS / RFU, GK / Fold change vs veh, GK / RFU, ZNF148 / Fold change vs veh, ZNF148 / RFU, TAF9 / Fold change vs veh, TAF9 / RFU, SLC1A5 / Fold change vs veh, SLC1A5 / RFU, SLMO2 / Fold change vs veh, SLMO2 / RFU, ABCC4 / Fold change vs veh, ABCC4 / RFU, LOC101060439 /// RAP1B / Fold change vs veh, LOC101060439 /// RAP1B / RFU, RFX7 / Fold change vs veh, RFX7 / RFU, GTPBP10 / Fold change vs veh, GTPBP10 / RFU, CNEP1R1 / Fold change vs veh, CNEP1R1 / RFU, BIVM-ERCC5 /// ERCC5 / Fold change vs veh, BIVM-ERCC5 /// ERCC5 / RFU, ILF3 / Fold change vs veh, ILF3 / RFU 11762660_at / Fold change /veh 11762660_at / RFU VCAN (11757783_s_at) / Fold change /veh VCAN (11757783_s_at) / RFU DDX43 (11728927_at) / Fold change /veh DDX43 (11728927_at) / RFU KRT8 (11758188_x_at) / Fold change /veh KRT8 (11758188_x_at) / RFU NKD1 (11759106_at) / Fold change /veh NKD1 (11759106_at) / RFU SRD5A1 (11742802_a_at) / Fold change /veh SRD5A1 (11742802_a_at) / RFU TPSAB1 /// TPSB2 (11721975_s_at) / Fold change /veh TPSAB1 /// TPSB2 (11721975_s_at) / RFU GSTM3 (11746129_a_at) / Fold change /veh GSTM3 (11746129_a_at) / RFU IL23R (11737362_x_at) / Fold change /veh IL23R (11737362_x_at) / RFU TMEM51 (11727254_a_at) / Fold change /veh TMEM51 (11727254_a_at) / RFU PIWIL2 (11732686_x_at) / Fold change /veh PIWIL2 (11732686_x_at) / RFU ORM1 (11744905_x_at) / Fold change /veh ORM1 (11744905_x_at) / RFU CCDC152 (11743942_at) / Fold change /veh CCDC152 (11743942_at) / RFU ECM1 (11717891_a_at) / Fold change /veh ECM1 (11717891_a_at) / RFU IL23R (11748794_a_at) / Fold change /veh IL23R (11748794_a_at) / RFU TNFAIP8L3 (11732012_x_at) / Fold change /veh TNFAIP8L3 (11732012_x_at) / RFU MBOAT4 (11741988_at) / Fold change /veh MBOAT4 (11741988_at) / RFU 11764193_at / Fold change /veh 11764193_at / RFU TMEM53 (11763286_at) / Fold change /veh TMEM53 (11763286_at) / RFU MAGEB2 (11727129_at) / Fold change /veh MAGEB2 (11727129_at) / RFU TMEM200A (11744735_a_at) / Fold change /veh TMEM200A (11744735_a_at) / RFU CCDC152 (11751479_a_at) / Fold change /veh CCDC152 (11751479_a_at) / RFU FAM211A (11726209_a_at) / Fold change /veh FAM211A (11726209_a_at) / RFU RGS16 (11746705_a_at) / Fold change /veh RGS16 (11746705_a_at) / RFU VCAN (11755009_s_at) / Fold change /veh VCAN (11755009_s_at) / RFU RHOB (11743442_s_at) / Fold change /veh RHOB (11743442_s_at) / RFU RGS16 (11720943_a_at) / Fold change /veh RGS16 (11720943_a_at) / RFU RGS16 (11720944_at) / Fold change /veh RGS16 (11720944_at) / RFU, VPS4B / Fold change vs veh, VPS4B / RFU, CREB1 / Fold change vs veh, CREB1 / RFU, DNAJC13 / Fold change vs veh, DNAJC13 / RFU, GNAQ / Fold change vs veh, GNAQ / RFU, CDK5R1 / Fold change vs veh, CDK5R1 / RFU, ZRANB3 / Fold change vs veh, ZRANB3 / RFU, CUL4A / Fold change vs veh, CUL4A / RFU, CCNY / Fold change vs veh, CCNY / RFU, UFL1 / Fold change vs veh, UFL1 / RFU, COG3 / Fold change vs veh, COG3 / RFU, DIAPH2 / Fold change vs veh, DIAPH2 / RFU, SKA2 / Fold change vs veh, SKA2 / RFU, AFF3 / Fold change vs veh, AFF3 / RFU, LMF1 / Fold change vs veh, LMF1 / RFU, IPO11 / Fold change vs veh, IPO11 / RFU, DFFB / Fold change vs veh, DFFB / RFU, FOXP1 / Fold change vs veh, FOXP1 / RFU, CARD8 / Fold change vs veh, CARD8 / RFU, STRN3 / Fold change vs veh, STRN3 / RFU, ADK / Fold change vs veh, ADK / RFU, RASSF2 / Fold change vs veh, RASSF2 / RFU, WIPF1 / Fold change vs veh, WIPF1 / RFU, LARP1B / Fold change vs veh, LARP1B / RFU, RASA1 / Fold change vs veh, RASA1 / RFU, RB1 / Fold change vs veh, RB1 / RFU, PPFIA1 / Fold change vs veh, PPFIA1 / RFU, MAT2A / Fold change vs veh, MAT2A / RFU, CCT5 / Fold change vs veh, CCT5 / RFU, WDR92 / Fold change vs veh, WDR92 / RFU, CUX1 / Fold change vs veh, CUX1 / RFU, TTC7A / Fold change vs veh, TTC7A / RFU, TMEM135 / Fold change vs veh, TMEM135 / RFU, DEPTOR / Fold change vs veh, DEPTOR / RFU, CPM / Fold change vs veh, CPM / RFU, DNAJB6 / Fold change vs veh, DNAJB6 / RFU, CACNA2D3 / Fold change vs veh, CACNA2D3 / RFU, DTX4 / Fold change vs veh, DTX4 / RFU, TFCP2 / Fold change vs veh, TFCP2 / RFU, GMCL1 /// GMCL1P1 / Fold change vs veh, GMCL1 /// GMCL1P1 / RFU, AEBP2 / Fold change vs veh, AEBP2 / RFU, SNHG1 /// SNORD22 /// SNORD25 /// SNORD26 /// SNORD27 /// SNORD28 /// SNORD29 /// SNORD31 / Fold change vs veh, SNHG1 /// SNORD22 /// SNORD25 /// SNORD26 /// SNORD27 /// SNORD28 /// SNORD29 /// SNORD31 / Fold change (Aza/veh), C12orf56 (ProbeSet 11735607_a_at) / Fold change (ACY-1035/veh), C12orf56 (ProbeSet 11735607_a_at) / Fold change (Aza/veh), FGFR1OP (ProbeSet 11751329_s_at) / Fold change (ACY-1035/veh), FGFR1OP (ProbeSet 11751329_s_at) / Fold change (Aza/veh), VPS36 (ProbeSet 11739960_a_at) / Fold change (ACY-1035/veh), VPS36 (ProbeSet 11739960_a_at) / RFU SYPL1 (11715823_x_at) / Fold change /veh SYPL1 (11715823_x_at) / RFU IGFBP7 (11715501_s_at) / Fold change /veh IGFBP7 (11715501_s_at) / RFU REEP3 (11722064_at) / Fold change /veh REEP3 (11722064_at) / RFU IGLL1 (11728026_x_at) / Fold change /veh IGLL1 (11728026_x_at): dose or concentration left out as unconfirmed. Format: cell-based, human. The conditions noted are these: ProbeSet 11755159_a_at; LIST D.

On to `Nc1ccc(-c2cccs2)cc1NC(=O)c1ccc2c(c1)cc(C1CC1)n2CCN1CCOCC1` [ACY-1035], for which the “RFU, COG3” value came out at 86.80 RFU.
